From patent US6133313A, “Insecticidal avocadofurans and triolein” (The Regents of the University of California, priority 1998, dated 2000)
“Also recorded” adds a separate entry of the source.

What was measured:
Format in all cases: in vivo, Spodoptera exigua
S. exigua larvae [1] = assay: toxicity of furan analogs of variable side chain length in diet assay; conditions: 5 μmoles g^-1 diet, in words
Description: To determine the toxicity of avocadofurans and their furan analogs, five saturated furans of variable side chain lengths, namely 2-(tetradecyl)furan compound (20), 2-(pentadecyl)furan (1), 2-(hexadecyl)furan compound (21), 2-(heptadecyl)furan (4), and 2-(octadecyl)furan compound (22) were tested for their activity against S. exigua in diet assay. Diets for treatments were prepared at a concentration known to be insecticidal against S. exigua early instar of 5 μmoles g^-1 diet. To compare toxicity among furans, concentration in μmoles g^-1 diet were adjusted according to the molecular weights of individual furans.
Five saturated furans of variable side chain lengths: 2-(tetradecyl)furan (20), 2-(pentadecyl)furan (1), 2-(hexadecyl)furan (21), 2-(heptadecyl)furan (4), and 2-(octadecyl)furan (22) were tested for activity against S. exigua in diet bioassays. Treated diets were prepared at a concentration known to be insecticidal against S. exigua early instars (5 μmoles g^-1 diet). To compare toxicity among furans, concentrations in μmoles g^-1 of diet were used to compensate for their different molecular weights.
Each furan compound was transferred into a 50-ml polypropylene centrifuge tube (Fisher, Pittsburgh Pa.), added 2 ml of 0.1% Tween-80 solution (Fisher), homogenized with an ultrasonic homogenizer (Cole-Parmer, Chicago, Ill.), and artificial diet was added to produce a final weight of 15 g. The mixture was vortexed for 3 mm. Control diet was prepared by mixing 2 ml of Tween solution with 13 g of artificial diet to produce a final weight of 15 g. Control and treated diets were poured into 16-well bioassay trays (C-D International Inc., Pitman N.J.). One neonate was added per well. Trays were placed in an incubator set for conditions described previously. Twenty-four neonates were tested for each treatment. Each treatment was replicated four times (total of 96 larvae/treatment). Larval mortality and weight were recorded after 9 days.

S. exigua larvae [2] = assay: growth inhibition and mortality of synthetic avocadofurans and triolein in diet bioassay; parameters: key to GI (growth index): growth index calculated per J. Chem. Ecol. 19:1109 (1993), imax = 3; conditions: for 7-d Instar / 7-d Larval Weight: mean ± SE; for mortality at 600 µg/g / mortality at 750 µg/g / mortality at 900 µg/g / mortality at 1050 µg/g / mortality at 1200 µg/g: Spodoptera exigua, feed or water, 168 h, 7 d; for LC50 (95% FL): in diet; for comparative toxicity and growth inhibition / inhibition of larval growth: in words; for Relative Growth Index (RGI) vs log concentration regression (FIG. 4): log (μg/g)
Description: S. exigua larvae were used in all experiments. Larvae were reared on artificial diet modified from U.S.D.A. Agric. Res. Serv., Prod. Res. Rep., 1208:1 (1969), and maintained at 28+2° C., 14:10; light:dark (L:D) photoperiod.
The colony was collected from Orange Co., Calif. and had new genetic material added within 12 months prior to the study. The age of the cohorts tested was standardized by using neonates within 12 hours of eclosion. All bioassays were maintained at 28+2° C. 75% relative humidity (RH), and at 14:10 (L:D) photoperiod with fluorescent lighting.
The insecticidal activity of the fractions was tested with artificial diet bioassays. Treated diets were prepared by transferring 750 μl of acetone solutions of each fraction (equivalent to 300 mg crude idioblast cell oil) into 50-ml polypropylene centrifuge tubes (Fisher, Pittsburgh Pa.), evaporating the acetone, adding 2 ml of 0.1% Tween-80 solution (Fisher), homogenizing with an ultrasonic homogenizer (Co le-Parmer, Chicago Ill.), and adding prepared diet to produce a final weight of 15 g containing the equivalent of 2% idioblast oil. The mixture was vortexed for 3 mm.
Control diet was prepared by mixing 2 ml of Tween solution and 13 g of artificial diet to produce a final weight of 15 g. Control and treated diets were poured into 24-well (15.9 mm diameter and 15.9 mm depth) bioassay trays (C-D International Inc., Pitman N.J.). One neonate was added per well, and trays were placed in an incubator under the previously described conditions. Twenty-four neonates were tested for each fraction and control. Mortality and larval weights were recorded after 7 days.
The effect of the synthetically produced avocado furan compounds (>95% purity) and commercially available triolein (Sigma, St. Louis, Mo.) were tested on larval growth and mortality of S exigua. Treated and control diet were prepared as previously described.
Six different compound concentrations, chosen on the basis of studies with the oil fractions, were evaluated for both 2-(pentadecyl)furan and 2-(heptadecyl)furan: 0 (control), 600, 750, 900, 1050, and 1200 μg/g. Also, six concentrations of triolein (subfraction 1-1-12) were tested: 0 (control), 7000, 8000, 9000, 10000, and 11000 μg/g.
Twenty-four neonates were used per treatment. Bioassays were conducted as described in Example 4, and replicated 4 times for each concentration (i.e., a total of 96 larvae were tested for each concentration). Larval weight, instar, and mortality were recorded after 7 days […].
(§1) EC (effective concentration) values were calculated by subtracting the mean larval weight for each treatment from the mean weight of the controls, and dividing by the mean weight of the controls. LC (lethal concentration) values were obtained using probit analysis as described in Probit Analysis (1971) Cambridge University Press, Cambridge, UK. GI (growth index) and RGI (relative growth index) values were calculated as described in J. Chem. Ecol., 19:1109 (1993), but using an imax of 3 (the stage attained by most control larvae after 7 d). Statistical comparisons were conducted using SuperAnova Abacus Concept Inc., Berkeley, Calif. (1989).

S. exigua = assay: synergistic/joint toxicity of avocadofuran and triolein combinations; conditions: for Mortality (%) using LC25 / Survival to pupation: in vivo; for Weight, 9-d larvae / Weight, Pupae: mean ± spread; for Developmental times: neonate-pupa, in d (unit assumed)
Text: The treatments were as follows: Control, 2-(pentadecyl)furan, 2-(heptadecyl)furan, triolein, individually, and 2-(pentadecyl)furan combined with 2-(heptadecyl)furan and triolein, 2-(pentadecyl)furan combined with triolein, and 2-(heptadecyl)furan combined with triolein. Because the combined LC25 s for both avocadofurans exceed their LC50 values, a concentration for each was adjusted so that when added it would approximate the value of the avocadofurans LC50 (see Table 2). These concentrations were used whenever both avocadofurans were combined in the same treatment. Treatments were replicated four times, with 15 larvae per replicate to a total of 60 larvae/treatment.
Joint effects were determined by testing all combinations of LC25 s (estimated from probit lines shown in Table 1) of the three compounds for toxicity to S. exigua. The treatments were: control, 2-(pentadecyl)furan, 2-(heptadecyl)furan, triolein, 2-(pentadecyl)furan+triolein, 2-(heptadecyl)furan+triolein, and 2-(pentadecyl)furan+2-(heptadecyl)furan+triolein. Because the combined LC25 s for both avocadofurans exceeded their LC50 values (due to a steep slope of their LC lines), a concentration for each was used so that when added together it would approximate the value of the avocadofurans LC50 (Table 1). These concentrations were used whenever both avocadofurans were combined in the same treatment.
Treatments were replicated four times, with 15 larvae per replicate (total of 60 larvae/treatment). Dietary treatment preparations and bioassay procedures were conducted as described in Example 4. For each diet treatment, 9-d larval instar and weight, pupal weights, times to pupation, and larval mortality were recorded.

neonate S. exigua = assay: individual toxicity of avocadofurans and triolein in artificial diet; conditions: for effect on pupal weight (FIG. 7) / larval developmental time from neonate to pupa (FIG. 8) / Relative Growth Index (RGI) (FIG. 10): in words; for Relative Growth Index (RGI) (FIG. 10): increasing concentrations
Description: In this study, individual activity of avocadofurans was investigated quantitatively. For this purpose, eight concentrations of the avocadofurans (1) and (4) and triolein (8) were tested. Results are seen in FIG. 6.
Following pilot studies, eight concentrations of each were tested: 0, 0.5, 1, 1.5, 2, 2.5, 3, and 3.5 μmoles g^~1 diet. Also, five concentrations of triolein were tested: 0; 1,000; 2,000; 3,000; and 4,000 μg g^~1 diet. Because triolein was not compared to a structurally similar compound, a more standard dietary formulation of μg g-^1 was used rather than ^~ moles g^-1 in all triolein-treated bioassays.
Treated and control diet were prepared as described above. For each concentration the compounds were dissolved in 10 ml of Tween solution and mixed using an ultrasonic homogenizer. Untreated diet was added to make a total of 100 g and then vortexed for 3 mm. Control diet was prepared by mixing 10 ml of the Tween solution with 90 g of artificial diet to produce a final weight of 100 g. Control and treated diets were poured into 30 ml plastic cups. One neonate was placed in each cup and cups were held in an incubator. Fifteen larvae were tested at each concentration, and assays were replicated 4 times (total of 60 larvae/treatment). For each diet treatment, 9-d larval instar and weight, pupal weights, times to pupation, and larval mortality were recorded.
as §1

[3] = lowest concentration vs controls

CCCCCCCCCCCCCCCCCCc1ccco1 [2-(octadecyl)furan]
effect on 9-day larval weight (FIG. 5B) (S. exigua larvae [1]): comparable to the best compound described above, namely compound (1)

CCCCCCCCCCCCCCCCCc1ccco1 [2-(heptadecyl)furan (4), 2-(heptadecyl)furan]
GI (growth index) (S. exigua larvae [2]; 600 μg/g): 0.73
percent reduction in larval weight vs control (S. exigua larvae [2]; 600 μg/g): 79.46%
7-d Instar (S. exigua larvae [2]; 600 μg/g): 2.25 ± 0.06
7-d Larval Weight (S. exigua larvae [2]; 600 μg/g): 6.44 ± 0.44 mg
GI (growth index) (S. exigua larvae [2]; 750 μg/g): 0.62
percent reduction in larval weight vs control (S. exigua larvae [2]; 750 μg/g): 87.14%
7-d Instar (S. exigua larvae [2]; 750 μg/g): 1.95 ± 0.06
7-d Larval Weight (S. exigua larvae [2]; 750 μg/g): 4.03 ± 0.44 mg
GI (growth index) (S. exigua larvae [2]; 900 μg/g): 0.56
percent reduction in larval weight vs control (S. exigua larvae [2]; 900 μg/g): 89.84%
7-d Instar (S. exigua larvae [2]; 900 μg/g): 1.87 ± 0.06
7-d Larval Weight (S. exigua larvae [2]; 900 μg/g): 3.19 ± 0.30 mg
GI (growth index) (S. exigua larvae [2]; 1050 μg/g): 0.46
percent reduction in larval weight vs control (S. exigua larvae [2]; 1050 μg/g): 93.55%
7-d Instar (S. exigua larvae [2]; 1050 μg/g): 1.65 ± 0.07
7-d Larval Weight (S. exigua larvae [2]; 1050 μg/g): 2.02 ± 0.16 mg
GI (growth index) (S. exigua larvae [2]; 1200 μg/g): 0.23
percent reduction in larval weight vs control (S. exigua larvae [2]; 1200 μg/g): 95.93%
7-d Instar (S. exigua larvae [2]; 1200 μg/g): 1.43 ± 0.08
7-d Larval Weight (S. exigua larvae [2]; 1200 μg/g): 1.28 ± 0.16 mg
mortality (S. exigua larvae [2]; 600 to 900 μg/g): < 15%
reduction of larval development and growth (S. exigua larvae [2]; 600 to 900 μg/g): > 75%
mortality at 600 µg/g (S. exigua larvae [2]; 600 μg/g): 2.08%
mortality at 750 µg/g (S. exigua larvae [2]; 750 μg/g): 4.2%
mortality at 900 µg/g (S. exigua larvae [2]; 900 μg/g): 10.4%
mortality at 1050 µg/g (S. exigua larvae [2]; 1050 μg/g): 16.7%
mortality at 1200 µg/g (S. exigua larvae [2]; 1200 μg/g): 54.2%
LC50 (95% FL) (S. exigua larvae [2]): 1206 µg/g
comparative toxicity and growth inhibition (S. exigua larvae [2]): more toxic and growth inhibitory to S. exigua than either of the unsaturated compounds (2) and (6)
inhibition of larval growth (S. exigua larvae [2]): significantly inhibited larval growth
Relative Growth Index (RGI) vs log concentration regression (FIG. 4) (S. exigua larvae [2]): y=4.82-1.47*log(x), r^2 =0.89
Mortality (%) using LC25 (S. exigua): 23.3%
Survival to pupation (S. exigua): 76.6%
Weight, 9-d larvae (S. exigua): 54.2 ± 5.9 mg
Weight, Pupae (S. exigua): 112.8 ± 2.6 mg
Developmental times (S. exigua): 18.0
LC25 (95% FL) (neonate S. exigua; avocadofurans, larval stage): 1.02(0.70-1.29) μmoles g^-1 of diet
effect on pupal weight (FIG. 7) (neonate S. exigua): significantly reduced
larval developmental time from neonate to pupa (FIG. 8) (neonate S. exigua): significantly prolonged
Relative Growth Index (RGI) (FIG. 10) (neonate S. exigua): decreased with increasing concentrations
LC50 (neonate S. exigua; larval stage): 2.1 μmoles g^-1 diet
concentration significantly reducing pupal weight (FIG. 7A) (neonate S. exigua; [3]): ≥ 3 µmol/g

CCCCCCCCCCCCCCCc1ccco1 [2-(pentadecyl)furan (1), 2-(pentadecyl)furan]
GI (growth index) (S. exigua larvae [2]; 600 μg/g): 0.69
percent reduction in larval weight vs control (S. exigua larvae [2]; 600 μg/g): 72.89%
7-d Instar (S. exigua larvae [2]; 600 μg/g): 2.29 ± 0.07
7-d Larval Weight (S. exigua larvae [2]; 600 μg/g): 8.50 ± 0.95 mg
GI (growth index) (S. exigua larvae [2]; 750 μg/g): 0.55
percent reduction in larval weight vs control (S. exigua larvae [2]; 750 μg/g): 85.83%
7-d Instar (S. exigua larvae [2]; 750 μg/g): 2.04 ± 0.07
7-d Larval Weight (S. exigua larvae [2]; 750 μg/g): 4.44 ± 0.45 mg
GI (growth index) (S. exigua larvae [2]; 900 μg/g): 0.26
percent reduction in larval weight vs control (S. exigua larvae [2]; 900 μg/g): 90.35%
7-d Instar (S. exigua larvae [2]; 900 μg/g): 1.74 ± 0.07
7-d Larval Weight (S. exigua larvae [2]; 900 μg/g): 3.03 ± 0.35 mg
GI (growth index) (S. exigua larvae [2]; 1050 μg/g): 0.25
percent reduction in larval weight vs control (S. exigua larvae [2]; 1050 μg/g): 95.50%
7-d Instar (S. exigua larvae [2]; 1050 μg/g): 1.61 ± 0.07
7-d Larval Weight (S. exigua larvae [2]; 1050 μg/g): 1.41 ± 0.15 mg
GI (growth index) (S. exigua larvae [2]; 1200 μg/g): 0.15
percent reduction in larval weight vs control (S. exigua larvae [2]; 1200 μg/g): 95.78%
7-d Instar (S. exigua larvae [2]; 1200 μg/g): 1.56 ± 0.09
7-d Larval Weight (S. exigua larvae [2]; 1200 μg/g): 1.32 ± 0.19 mg
mortality at 600 µg/g (S. exigua larvae [2]; 600 μg/g): 9.37%
mortality at 750 µg/g (S. exigua larvae [2]; 750 μg/g): 18.8%
mortality at 900 µg/g (S. exigua larvae [2]; 900 μg/g): 32.3%
mortality at 1050 µg/g (S. exigua larvae [2]; 1050 μg/g): 54.2%
mortality at 1200 µg/g (S. exigua larvae [2]; 1200 μg/g): 71.9%
reduction of larval development (S. exigua larvae [2]; concentrations above 600 μg/g): > 70%
LC50 (95% FL) (S. exigua larvae [2]): 1031 µg/g
inhibition of larval growth (S. exigua larvae [2]): significantly inhibited larval growth
comparative toxicity and growth inhibition (S. exigua larvae [2]; listed as 1): more toxic and growth inhibitory to S. exigua than either of the unsaturated compounds (2) and (6); also recorded: the most toxic
comparative toxicity and growth inhibition (S. exigua larvae [2]; listed as 2-(pentadecyl)furan): most active of the two major compounds from that subfraction
Relative Growth Index (RGI) vs log concentration regression (FIG. 4) (S. exigua larvae [2]): y=5.66-1.79*log(x), r^2 =0.94
Mortality (%) using LC25 (S. exigua): 36.7%
Survival to pupation (S. exigua): 63.3%
Weight, 9-d larvae (S. exigua): 22.4 ± 2.9 mg
Weight, Pupae (S. exigua): 104.3 ± 3.2 mg
Developmental times (S. exigua): 19.8 ± 0.7
growth inhibition (FIG. 6A) (neonate S. exigua; 1.5 μmoles g^-1 or higher, 9 d): more than 50%
LC25 (95% FL) (neonate S. exigua; avocadofurans, larval stage): 1.76(1.55-1.93) μmoles g^-1 of diet
LC50 (95% FL) (neonate S. exigua; avocadofurans, larval stage): 2.24(2.08-2.39) μmoles g^-1 of diet
effect on pupal weight (FIG. 7) (neonate S. exigua): significantly reduced
larval developmental time from neonate to pupa (FIG. 8) (neonate S. exigua): significantly prolonged
Relative Growth Index (RGI) (FIG. 10) (neonate S. exigua): decreased with increasing concentrations
LC50 (neonate S. exigua; larval stage): 2.2 μmoles g^-1 diet
concentration significantly reducing 9-day larval weight (FIG. 6A) (neonate S. exigua; [3]): ≥ 1.5 µmol/g
concentration significantly reducing pupal weight (FIG. 7A) (neonate S. exigua; [3]): ≥ 3 µmol/g
